According to patent US20080153791A1, “11Beta -Hydroxysteroid Dehydrogenases” (onpharm GmbH, priority 2005, published 2008):
Where two headings read alike, the source gives them in different places.

Experiments:
human 11β-HSD1 = biological target: T1, human 11β-HSD1 (Homo sapiens, UniProt P28845); assay: 11β-HSD1 reductase activity (cortisone to cortisol) in lysates of stably transfected HEK-293 cells; assay type: biochemical; conditions: for remaining activity at 20 µM: 20 μM compound, 100 nM cortisone, HEK-293 cell lysates, read-out: 11β-HSD1 % of control; for IC50: cell lysates
T1 construct: expressed in transfected cells
Method: (§1) Cells were grown in 10 cm dishes to 80% confluence and incubated for 16 h in steroid-free medium (charcoal-treated fetal calf serum (FCS) from HyClone, Logan, Utah). Cells were rinsed once with phosphate-buffered saline (PBS), detached and centrifuged for 3 min at 150×g. The supernatant was removed and the cell pellet quick-frozen in a dry-ice ethanol bath. At the day of experiment, cell pellets were resuspended in buffer TS2 (100 mM NaCl, 1 mM EGTA, 1 mM EDTA, 1 mM MgCl2, 250 mM sucrose, 20 mM Tris-HCl, pH 7.4), sonicated and activities determined immediately. The rate of conversion of cortisol to cortisone or the reverse reaction was determined in 96-well optical PCR reaction plates (Applied Biosystems, Foster City, Calif.) in a final volume of 22 μl, and the tubes were capped during the reaction to avoid evaporation.
Reactions were initiated simultaneously by adding 10 μl of cell lysate and 12 μl of TS2 buffer containing the appropriate concentration of the inhibitory compound to be tested, NADPH, 30 nCi of [1,2,6,7-^3H]-cortisone and unlabeled cortisone, whereby final concentrations were 400 μM NADPH and 100 nM cortisone. Activities were determined immediately after cell disruption by measuring the conversion of radiolabeled cortisone to cortisol for 10 min.
(§2) Enzyme kinetics were analyzed by non-linear regression using Data Analysis Toolbox (MDL Information Systems Inc.) assuming first-order rate kinetics. Data represent mean ±SD of four to five independent experiments.
(§3) Assay with 20 μM of the corresponding compound in the reaction mixture, added simultaneously with the substrate:
(§4) Determination of IC50 values, using 7 different inhibitor concentrations at factor 2 intervals: […]

human 11β-HSD2 = biological target: T2, human 11β-HSD2 (Homo sapiens, UniProt P80365); assay: 11β-HSD2 oxidase activity (cortisol to cortisone) in lysates of stably transfected HEK-293 cells; assay type: biochemical; conditions: for remaining activity at 20 µM: read-out: 11β-HSD2 % of control
T2 construct: expressed in transfected cells
T2 sequence (P80365 1-405): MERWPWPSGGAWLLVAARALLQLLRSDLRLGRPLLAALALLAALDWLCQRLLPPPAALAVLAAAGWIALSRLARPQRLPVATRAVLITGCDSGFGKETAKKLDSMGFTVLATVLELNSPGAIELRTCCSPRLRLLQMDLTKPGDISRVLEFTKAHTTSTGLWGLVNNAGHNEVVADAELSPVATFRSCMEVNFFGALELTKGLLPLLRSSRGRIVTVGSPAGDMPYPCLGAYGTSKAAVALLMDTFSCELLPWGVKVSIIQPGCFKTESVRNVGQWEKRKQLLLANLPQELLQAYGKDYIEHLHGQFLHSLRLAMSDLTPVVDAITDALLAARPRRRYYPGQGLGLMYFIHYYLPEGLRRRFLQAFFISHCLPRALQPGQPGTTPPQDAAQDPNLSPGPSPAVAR
Method: as §1
Reactions were initiated by simultaneously adding 10 μl of cell lysate and 12 μl of TS2 buffer containing the appropriate concentration of the inhibitory compound to be tested, NAD^+, 30 nCi of [1,2,6,7-^3H]-cortisol and unlabeled cortisol. […] Stock solutions of the inhibitors in methanol or DMSO were diluted in TS2 buffer to yield the appropriate concentrations, whereby the concentration of methanol or DMSO in the reactions were kept below 0.1%. Control reactions with or without 0.1% of the solvent were performed. Incubation was at 37° C. for 10 min with shaking, reactions were terminated by adding 10 μl of stop solution containing 2 mM of unlabeled cortisol and cortisone dissolved in methanol. The conversion of radiolabeled cortisol was determined by separation of cortisol and cortisone using TLC and a solvent system of 9:1 (v/v) chloroform:methanol, followed by scintillation counting.
as §2, §3, §4

[1] = 20 μM compound, 25 nM cortisol, HEK-293 cell lysates
[2] = cell lysates, 7 inhibitor concentrations at factor 2 intervals, experiment 2, read-out: IC 50 11β-HSD2, determination 2
[3] = cell lysates, 7 inhibitor concentrations at factor 2 intervals, experiment 3, read-out: IC 50 11β-HSD2, determination 3

T1 sequence (P28845 whole entry): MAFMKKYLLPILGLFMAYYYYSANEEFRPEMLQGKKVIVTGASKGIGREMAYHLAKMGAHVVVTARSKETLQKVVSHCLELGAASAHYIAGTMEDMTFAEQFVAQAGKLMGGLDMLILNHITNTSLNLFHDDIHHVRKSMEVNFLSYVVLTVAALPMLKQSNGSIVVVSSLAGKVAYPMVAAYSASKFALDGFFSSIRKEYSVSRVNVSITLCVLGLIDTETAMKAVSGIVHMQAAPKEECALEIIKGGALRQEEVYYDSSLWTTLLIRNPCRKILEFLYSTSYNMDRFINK

Row | Structure (SMILES) | remaining activity at 20 µM (human 11β-HSD1) [%] | remaining activity at 20 µM (human 11β-HSD2; [1]) [%] | further results
1 | CCN(CC(O)COc1cc(C)c(Cl)c(C)c1)S(=O)(=O)O (stereo not drawn) [BNW1] | 102 | 96.8 | –
2 | Cc1nn(CC(=O)Nc2sc(C)c(C)c2C(N)=O)c(C)c1[N+](=O)[O-] [BNW4] | 82.2 | 95 | –
3 | Cc1n[nH]c(O)c1C(c1ccc(-c2ccc(Cl)c(C(=O)O)c2)o1)c1c(O)n[nH]c1C [BNW5] | 69.8 | 97.5 | –
4 | COc1ccc(C(=O)NCc2cccc(Cl)c2Cl)c(C(F)(F)F)c1 [BNW6] | 79.6 | 145 | –
5 | NC(=O)c1c(NC(=O)C2CC=CCC2C(=O)O)sc2c1CCCCC2 (stereo not drawn) [BNW8] | 41.7 | 103 | –
6 | CCN(CC)S(=O)(=O)c1ccc(Cl)c(C(=O)Nc2nc3ccc(S(C)(=O)=O)cc3s2)c1 [BNW12] | 85.4 | 132 | –
7 | COC(=O)[C@@]1(C)CC[C@]2(C)CC[C@]3(C)C(=CC(=O)[C@@H]4[C@@]5(C)CC[C@H](Oc6ccccc6C(=O)O)C(C)(C)[C@@H]5CC[C@]43C)[C@@H]2C1 [BNW13, (2S,4aS,6aS,6bR,8aR,10S,12aS,12bR,14bR)-10-(2-Carboxy-phenoxy)-2,4a,6a,6b,9,9,12a-heptamethyl-13-oxo-1,2,3,4,4a,5,6,6a,6b,7,8,8a,9,10,11,12,12a,12b,13,14b-icosahydro-picene-2-carboxylic acid methyl ester] | 3.9 | 14.4 | IC50 (human 11β-HSD1; 7 inhibitor concentrations at factor 2 intervals, experiment 1, read-out: IC 50 11β-HSD1, determination 1): 0.666 µM; IC50 (human 11β-HSD1; 7 inhibitor concentrations at factor 2 intervals, experiment 2, read-out: IC 50 11β-HSD1, determination 2): 0.756 µM; IC50 (human 11β-HSD1; 7 inhibitor concentrations at factor 2 intervals, experiment 3, read-out: IC 50 11β-HSD1, determination 3): 0.652 µM; IC50 (human 11β-HSD2; [2]): 0.263 µM; IC50 (human 11β-HSD2; [3]): 0.299 µM
8 | CC1(C)[C@@H](OCO)CC[C@]2(C)[C@H]3C(=O)C=C4C5=C[C@@](C)(C(=O)O)CC[C@]5(C)CC[C@@]4(C)[C@]3(C)CC[C@@H]12 [BNW15] | 50.4 | 56.9 | –
9 | CSc1nc2cc(C)c(C)cc2n1C1OC(CO)C(O)C1O (stereo not drawn) [BNW18] | 92 | 82.8 | –
10 | COc1cccc(/C=N/NC(=O)CSCc2ccccc2C)c1OC [BNW23] | 85.1 | 133 | –
11 | CC1(C)[C@@H](N)CC[C@]2(C)[C@H]3C(=O)C=C4[C@@H]5C[C@@](C)(C(=O)O)CC[C@]5(C)CC[C@@]4(C)[C@]3(C)CC[C@@H]12 [BNW25, (2S,4aS,6aS,6bR,8aR,10S,12aS,12bR,14bR)-10-Amino-2,4a,6a,6b,9,9,12a-heptamethyl-13-oxo-1,2,3,4,4a,5,6,6a,6b,7,8,8a,9,10,11,12,12a,12b,13,14b-icosahydro-picene−2-carboxyiic acid] | 2.9 | – | IC50 (human 11β-HSD1; mean of determinations 1-3, read-out: IC 50 11β-HSD1, Mean): 0.172 µM; IC50 (human 11β-HSD2; [2]): 0.0546 µM; IC50 (human 11β-HSD2; [3]): 0.0649 µM; remaining activity at 20 µM (human 11β-HSD2): 13.9%; IC50 (human 11β-HSD2; read-out: IC 50 11β-HSD2, Mean): 0.0597 µM
12 | COc1cc2c(cc1OC)C(COc1ccc([N+](=O)[O-])cc1)N(C(=O)c1ccc(Cl)c([N+](=O)[O-])c1)CC2 (stereo not drawn) [BNW27] | 78.6 | 126 | –

More lines, main results first:

Row | remaining activity at 20 µM (human 11β-HSD1) [%] | remaining activity at 20 µM (human 11β-HSD2; [1]) [%] | Structure (SMILES) | further results
13 | 78.8 | 78 | COc1ccc(OC)c(C2C(C(=O)c3ccc(Br)cc3)=C(O)C(=O)N2CCCn2ccnc2)c1 (stereo not drawn) [BNW2] | –
14 | 60.3 | 53.6 | CCCCOc1ccc(C(=O)C2=C(O)C(=O)N(CCOC)C2c2cccnc2)c(C)c1 (stereo not drawn) [BNW3] | –
15 | 30.7 | 77.4 | COCCC1C(=O)C(O)=C(C(=O)c2ccc(OC)c(C)c2)C1c1ccc(Cl)cc1Cl (stereo not drawn) [BNW9] | –
16 | 70.1 | 121 | Cc1cccc(C)c1C1C(SCC(=O)Nc2c(Cl)cccc2Cl)=NN=C1c1cccc([S+]([O-])N(C)C)c1 (stereo not drawn) [BNW11] | –
17 | 88.2 | 120 | CCOc1ccc(C2c3cc(OCC)c(OCC)cc3CC(=O)N2c2ccc(C(=O)O)cc2)cc1OCC (stereo not drawn) [BNW17] | –
18 | 46.8 | 121 | COCCN1C(=O)C(O)=C(C(=O)c2ccc(OC)c(C)c2)C1c1ccc(C)cc1 (stereo not drawn) [BNW20] | –
19 | 48.9 | 122 | COc1ccc(C(=O)C2=C(O)C(=O)N(CCCn3ccnc3)C2c2ccccc2)cc1Cl (stereo not drawn) [BNW21] | –
20 | 41.3 | 104 | CCOc1ccc(C2C(C(=O)c3ccc(Cl)cc3)=C(O)C(=O)N2CCCn2ccnc2)cc1OCC (stereo not drawn) [BNW22] | –
21 | 94.1 | 137 | COc1ccc(CNC(=O)C2CCC(=O)N2C2CCCC2)cc1OC (stereo not drawn) [BNW26] | –
22 | 76.7 | 137 | COc1cc(/C=N/NC(=O)CSc2nc3ccccc3n2Cc2ccc(C)cc2)cc(OC)c1OC(C)=O [BNW28] | –
23 | 75.3 | 115 | CCN(CC)S(=O)(=O)c1ccc(OC)c(-c2nnc(-c3cc(S(=O)(=O)N(CC)CC)ccc3OC)o2)c1 [BNW29] | –
24 | 48.4 | 140 | CCC(Sc1nnc(-c2ccc(OC)c(OC)c2)c(-c2ccc(OC)c(OC)c2)n1)C(=O)N(CC)CC (stereo not drawn) [BNW30] | –
